ChEMBL document CHEMBL1147114, “Fluoroquinolone resistance in Haemophilus influenzae is associated with hypermutability” (2007)
Converted amounts (≈) assume the structure as drawn.

test system: Haemophilus influenzae; assay: Antimicrobial susceptibility against Haemophilus influenzae C2 isolate with GyrA Asp88Asn, AcrR Leu31His and Arg34Glu mutation; format: functional

Question: With `COc1c(N2C[C@@H]3CCCN[C@@H]3C2)c(F)cc2c(=O)c(C(=O)O)cn(C3CC3)c12` [MOXIFLOXACIN] as the molecule, how does the MIC read?
Answer: 4 µg/mL (≈ 9.96 µM)

Question: How did the MIC turn out when `CCn1cc(C(=O)O)c(=O)c2ccc(C)nc21` [NALIDIXIC ACID] was run?
Answer: 128 µg/mL (≈ 551 µM)

test system: Haemophilus influenzae; assay: Antimicrobial susceptibility against Haemophilus influenzae D2 isolate with GyrA Ser84Tyr, ParC Glu88Lys and AcrR Leu31His, Ile121Val and Gln134Lys mutation; format: functional

Question: Which MIC does the source give for `COc1c(N2C[C@@H]3CCCN[C@@H]3C2)c(F)cc2c(=O)c(C(=O)O)cn(C3CC3)c12` [MOXIFLOXACIN] here?
Answer: 2 µg/mL (≈ 4.98 µM)

Question: With `CCn1cc(C(=O)O)c(=O)c2ccc(C)nc21` [NALIDIXIC ACID] as the molecule, how does the MIC read?
Answer: 64 µg/mL (≈ 276 µM)

test system: Haemophilus influenzae; assay: Antimicrobial susceptibility against Haemophilus influenzae A3 isolate with GyrA Glu83Cys, ParC Ser84Arg and AcrR 97stop codon mutation; format: functional

Question: With `COc1c(N2C[C@@H]3CCCN[C@@H]3C2)c(F)cc2c(=O)c(C(=O)O)cn(C3CC3)c12` [MOXIFLOXACIN] as the molecule, how does the MIC read?
Answer: 0.5 µg/mL (≈ 1.25 µM)

Question: With `CCn1cc(C(=O)O)c(=O)c2ccc(C)nc21` [NALIDIXIC ACID] as the molecule, how does the MIC read?
Answer: 64 µg/mL (≈ 276 µM)

test system: Haemophilus influenzae; assay: Antimicrobial susceptibility against Haemophilus influenzae A isolate with GyrA Glu83Cys and AcrR 97stop codon mutation; format: functional

Question: `COc1c(N2C[C@@H]3CCCN[C@@H]3C2)c(F)cc2c(=O)c(C(=O)O)cn(C3CC3)c12` [MOXIFLOXACIN] was tested. Which MIC did it give?
Answer: 0.03 µg/mL (≈ 0.0747 µM)

Question: For `CCn1cc(C(=O)O)c(=O)c2ccc(C)nc21` [NALIDIXIC ACID], which MIC is on record?
Answer: 0.5 µg/mL (≈ 2.15 µM)

test system: Haemophilus influenzae; assay: Antimicrobial susceptibility against Haemophilus influenzae D3 isolate with GyrA Ser84Tyr, ParC Glu88Lys and AcrR Leu31His, Ile121Val and Gln134Lys mutation; format: functional

Question: How did the MIC turn out when `COc1c(N2C[C@@H]3CCCN[C@@H]3C2)c(F)cc2c(=O)c(C(=O)O)cn(C3CC3)c12` [MOXIFLOXACIN] was run?
Answer: 2 µg/mL (≈ 4.98 µM)

Question: With `CCn1cc(C(=O)O)c(=O)c2ccc(C)nc21` [NALIDIXIC ACID] as the molecule, how does the MIC read?
Answer: 128 µg/mL (≈ 551 µM)

test system: Haemophilus influenzae; assay: Antimicrobial susceptibility against Haemophilus influenzae C isolate with AcrR Leu31His and Arg34Glu mutation; format: functional

Question: `COc1c(N2C[C@@H]3CCCN[C@@H]3C2)c(F)cc2c(=O)c(C(=O)O)cn(C3CC3)c12` [MOXIFLOXACIN] was tested. Which MIC did it give?
Answer: 0.03 µg/mL (≈ 0.0747 µM)

Question: How did the MIC turn out when `CCn1cc(C(=O)O)c(=O)c2ccc(C)nc21` [NALIDIXIC ACID] was run?
Answer: 0.5 µg/mL (≈ 2.15 µM)

test system: Haemophilus influenzae; assay: Antimicrobial susceptibility against Haemophilus influenzae A2 with GyrA Glu83Cys, ParC Ser84Arg and AcrR 97stop codon mutation; format: functional

Question: Which MIC does the source give for `COc1c(N2C[C@@H]3CCCN[C@@H]3C2)c(F)cc2c(=O)c(C(=O)O)cn(C3CC3)c12` [MOXIFLOXACIN] here?
Answer: 0.5 µg/mL (≈ 1.25 µM)

Question: Which MIC does the source give for `CCn1cc(C(=O)O)c(=O)c2ccc(C)nc21` [NALIDIXIC ACID] here?
Answer: 64 µg/mL (≈ 276 µM)

test system: Haemophilus influenzae; assay: Antimicrobial susceptibility against Haemophilus influenzae A1 isolate with GyrA Glu83Cys, ParC Ser84Arg and AcrR 97stop codon mutation; format: functional

Question: How did the MIC turn out when `COc1c(N2C[C@@H]3CCCN[C@@H]3C2)c(F)cc2c(=O)c(C(=O)O)cn(C3CC3)c12` [MOXIFLOXACIN] was run?
Answer: 0.5 µg/mL (≈ 1.25 µM)

Question: With `CCn1cc(C(=O)O)c(=O)c2ccc(C)nc21` [NALIDIXIC ACID] as the molecule, how does the MIC read?
Answer: 1 µg/mL (≈ 4.31 µM)

test system: Haemophilus influenzae; assay: Antimicrobial susceptibility against Haemophilus influenzae A4 isolate with GyrA Glu83Cys, ParC Ser84Arg and AcrR 97stop codon mutation; format: functional

Question: With `COc1c(N2C[C@@H]3CCCN[C@@H]3C2)c(F)cc2c(=O)c(C(=O)O)cn(C3CC3)c12` [MOXIFLOXACIN] as the molecule, how does the MIC read?
Answer: 2 µg/mL (≈ 4.98 µM)

Question: For `CCn1cc(C(=O)O)c(=O)c2ccc(C)nc21` [NALIDIXIC ACID], which MIC is on record?
Answer: 128 µg/mL (≈ 551 µM)

test system: Haemophilus influenzae; assay: Antimicrobial susceptibility against Haemophilus influenzae B2 isolate with GyrA Asp88Tyr and AcrR Leu31His mutation; format: functional

Question: `COc1c(N2C[C@@H]3CCCN[C@@H]3C2)c(F)cc2c(=O)c(C(=O)O)cn(C3CC3)c12` [MOXIFLOXACIN] was tested. Which MIC did it give?
Answer: 0.25 µg/mL (≈ 0.623 µM)

Question: With `CCn1cc(C(=O)O)c(=O)c2ccc(C)nc21` [NALIDIXIC ACID] as the molecule, how does the MIC read?
Answer: 64 µg/mL (≈ 276 µM)

test system: Haemophilus influenzae; assay: Antimicrobial susceptibility against Haemophilus influenzae D isolate with AcrR Leu31His, Ile121Val and Gln134Lys mutation; format: functional

Question: For `COc1c(N2C[C@@H]3CCCN[C@@H]3C2)c(F)cc2c(=O)c(C(=O)O)cn(C3CC3)c12` [MOXIFLOXACIN], which MIC is on record?
Answer: 0.03 µg/mL (≈ 0.0747 µM)

Question: For `CCn1cc(C(=O)O)c(=O)c2ccc(C)nc21` [NALIDIXIC ACID], which MIC is on record?
Answer: 0.5 µg/mL (≈ 2.15 µM)

test system: Haemophilus influenzae; assay: Antimicrobial susceptibility against Haemophilus influenzae C1 isolate with GyrA Asp88Asn, AcrR Leu31His and Arg34Glu mutation; format: functional

Question: For `COc1c(N2C[C@@H]3CCCN[C@@H]3C2)c(F)cc2c(=O)c(C(=O)O)cn(C3CC3)c12` [MOXIFLOXACIN], which MIC is on record?
Answer: 0.12 µg/mL (≈ 0.299 µM)

Question: `CCn1cc(C(=O)O)c(=O)c2ccc(C)nc21` [NALIDIXIC ACID] was tested. Which MIC did it give?
Answer: 16 µg/mL (≈ 68.9 µM)

test system: Haemophilus influenzae; assay: Antimicrobial susceptibility against Haemophilus influenzae D4 isolate with GyrA Ser84Tyr, ParC Glu88Lys and AcrR Leu31His, Ile121Val and Gln134Lys mutation; format: functional

Question: How did the MIC turn out when `COc1c(N2C[C@@H]3CCCN[C@@H]3C2)c(F)cc2c(=O)c(C(=O)O)cn(C3CC3)c12` [MOXIFLOXACIN] was run?
Answer: 2 µg/mL (≈ 4.98 µM)

Question: For `CCn1cc(C(=O)O)c(=O)c2ccc(C)nc21` [NALIDIXIC ACID], which MIC is on record?
Answer: 128 µg/mL (≈ 551 µM)

test system: Haemophilus influenzae; assay: Antimicrobial susceptibility against Haemophilus influenzae B1 isolate with GyrA Asp88Tyr and AcrR Leu31His mutation; format: functional

Question: Which MIC does the source give for `COc1c(N2C[C@@H]3CCCN[C@@H]3C2)c(F)cc2c(=O)c(C(=O)O)cn(C3CC3)c12` [MOXIFLOXACIN] here?
Answer: 0.25 µg/mL (≈ 0.623 µM)

Question: How did the MIC turn out when `CCn1cc(C(=O)O)c(=O)c2ccc(C)nc21` [NALIDIXIC ACID] was run?
Answer: 32 µg/mL (≈ 138 µM)

test system: Haemophilus influenzae; assay: Antimicrobial susceptibility against Haemophilus influenzae C3 isolate with GyrA Asp88Asn, ParC Ser84Ile, AcrR Leu31His and Arg34Glu mutation; format: functional

Question: How did the MIC turn out when `COc1c(N2C[C@@H]3CCCN[C@@H]3C2)c(F)cc2c(=O)c(C(=O)O)cn(C3CC3)c12` [MOXIFLOXACIN] was run?
Answer: 4 µg/mL (≈ 9.96 µM)

Question: `CCn1cc(C(=O)O)c(=O)c2ccc(C)nc21` [NALIDIXIC ACID] was tested. Which MIC did it give?
Answer: 128 µg/mL (≈ 551 µM)

test system: Haemophilus influenzae; assay: Antimicrobial susceptibility against Haemophilus influenzae D1 isolate with GyrA Ser84Tyr, ParC Glu88Lys and AcrR Leu31His, Ile121Val and Gln134Lys mutation; format: functional

Question: `COc1c(N2C[C@@H]3CCCN[C@@H]3C2)c(F)cc2c(=O)c(C(=O)O)cn(C3CC3)c12` [MOXIFLOXACIN] was tested. Which MIC did it give?
Answer: 0.5 µg/mL (≈ 1.25 µM)

Question: How did the MIC turn out when `CCn1cc(C(=O)O)c(=O)c2ccc(C)nc21` [NALIDIXIC ACID] was run?
Answer: 64 µg/mL (≈ 276 µM)

test system: Haemophilus influenzae; assay: Antimicrobial susceptibility against Haemophilus influenzae B isolate with AcrR Leu31His mutation; format: functional

Question: For `COc1c(N2C[C@@H]3CCCN[C@@H]3C2)c(F)cc2c(=O)c(C(=O)O)cn(C3CC3)c12` [MOXIFLOXACIN], which MIC is on record?
Answer: 0.06 µg/mL (≈ 0.149 µM)

Question: For `CCn1cc(C(=O)O)c(=O)c2ccc(C)nc21` [NALIDIXIC ACID], which MIC is on record?
Answer: 0.5 µg/mL (≈ 2.15 µM)
